Results: patent US20210255193A1, “LYSINE REACTIVE PROBES AND USES THEREOF” (The Scripps Research Institute, priority 2017, published 2021)

Legend:
PFKP = target: T1, PFKP (Homo sapiens, UniProt Q01813); assay: direct labeling of recombinantly expressed proteins by gel-based ABPP (WT vs lysine mutant); assay type: binding; details: PFKP K688, KR mutant; 10 μM probe, 1 h
T1 construct: Flag; expressed in transfected cells; host or cells: HEK 293T, transient transfection, soluble lysate; cDNA clone 5180268 (Dharmacon)
T1 sequence (Q01813 1-784): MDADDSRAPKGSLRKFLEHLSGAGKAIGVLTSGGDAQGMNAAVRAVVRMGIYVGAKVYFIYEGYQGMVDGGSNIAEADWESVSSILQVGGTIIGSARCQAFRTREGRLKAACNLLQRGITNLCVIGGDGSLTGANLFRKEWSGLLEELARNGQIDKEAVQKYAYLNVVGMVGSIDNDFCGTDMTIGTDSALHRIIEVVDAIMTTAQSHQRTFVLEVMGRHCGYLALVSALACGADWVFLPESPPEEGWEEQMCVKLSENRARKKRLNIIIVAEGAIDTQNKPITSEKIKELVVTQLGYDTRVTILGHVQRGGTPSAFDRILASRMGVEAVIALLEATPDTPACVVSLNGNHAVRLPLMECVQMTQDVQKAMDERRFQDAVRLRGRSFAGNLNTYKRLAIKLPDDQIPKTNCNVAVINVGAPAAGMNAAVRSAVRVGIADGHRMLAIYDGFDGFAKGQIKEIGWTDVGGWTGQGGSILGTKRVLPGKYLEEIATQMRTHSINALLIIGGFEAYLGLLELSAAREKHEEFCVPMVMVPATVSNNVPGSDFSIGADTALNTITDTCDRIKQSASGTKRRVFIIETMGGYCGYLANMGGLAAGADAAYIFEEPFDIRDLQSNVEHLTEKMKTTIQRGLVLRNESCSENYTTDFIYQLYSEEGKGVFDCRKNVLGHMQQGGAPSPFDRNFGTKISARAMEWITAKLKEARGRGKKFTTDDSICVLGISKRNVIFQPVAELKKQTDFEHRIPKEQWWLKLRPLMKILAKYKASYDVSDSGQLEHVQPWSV
From the text: (§1) Subcloning and mutagenesis. Unless noted below, genes were amplified from cDNA prepared from low passage HEK 293T cells using the Ribozol RNA extraction reagent (Amresco) and the iScript Reverse Transcription Supermix kit (Bio-Rad). For the following proteins cDNA clones were used for amplification instead: PFKP (5180268, Dharmacon), HK1 (BC008730, transomic), SIN3A (BC137098, transomic), G6PD (BC000337, transomic) and TGIF1 (BC031268, transomic). Mouse CARM1 in pFLAG-CMV-6c was a kind gift from the Mowen lab (TSRI). NUDT2 was obtained as synthesized gene (IDT). DNA was amplified with custom forward and reverse primers using phusion polymerase (NEB, M0530S), digested with the indicated restriction enzyme and ligated into pFLAG-CMV-6c or pRK5 with the appropriate affinity tag. Lysine mutants were generated using QuikChange site-directed mutagenesis using Phusion® High-Fidelity DNA Polymerase and primers containing the desired mutations and their respective complements. The cloning of TTR and its K35A mutant has been described in Choi et al., “Chemoselective small molecules that covalently modify one lysine in a non-enzyme protein in plasma,” Nat. Chem. Biol. 6, 133-139 (2010). TTR was expressed in E. coli and purified as described. For gel-based experiments 1 μM TTR was added into 1 mg ml^−1 soluble MDA-MB-231 lysate.
(§2) Recombinant expression of proteins by transient transfection. HEK 293T cells were grown to 50% confluency in 10 ml DMEM supplemented with 10% fetal bovine serum (FBS), penicillin, streptomycin and glutamine in 10 cm tissue culture dishes. 3 μg of DNA was diluted in 500 μL DMEM and 30 μL of PEI (MW 40,000, 1 mg ml^−1, Polysciences) were added. The mixture was incubated at room temperature for 30 min and added dropwise to the cells. Cells were grown for 48 h at 37° C. with 5% CO2. Cells were washed with cold PBS, scraped with cold PBS and cell pellets were isolated by centrifugation (1,400 g, 3 min, 4° C.), and stored at −80° C. until use. Cell pellets were resuspended in PBS, lysed by sonication and fractionated (100,000 g, 45 min) to yield soluble and membrane fractions. The soluble fraction was adjusted to a final protein concentration of 1 mg ml^−1 for gel-based ABPP experiments.
(§3) Direct labeling of recombinantly expressed proteins by gel-based ABPP. 50 μL of soluble HEK 293T proteome (1 mg ml^−1) expressing the respective protein (WT or KR mutant) or transfected with an empty vector were treated with 10 μM of the indicated probe for 1 h at room temperature. The samples were analyzed as described in the previous section. For quantification of relative labeling of the different protein variants, the intensity of labeling was determined by quantifying the integrated optical intensity of the bands using ImageLab 5.2.1 software (BioRad).

PMVK = target: T2, PMVK (Homo sapiens, UniProt Q15126); assay: as above; assay type: binding; details: PMVK K48, KR mutant; 10 μM probe, 1 h
T2 construct: expressed in transfected cells; host or cells: HEK 293T
T2 sequence (Q15126 1-192): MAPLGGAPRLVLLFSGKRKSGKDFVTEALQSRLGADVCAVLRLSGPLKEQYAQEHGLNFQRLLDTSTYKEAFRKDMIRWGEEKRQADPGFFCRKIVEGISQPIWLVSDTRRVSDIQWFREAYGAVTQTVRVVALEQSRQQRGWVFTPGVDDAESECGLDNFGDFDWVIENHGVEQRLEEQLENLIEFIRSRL
From the text: as §1, §2, §3

## C#CCCC(=O)Oc1c(F)c(F)c(S(=O)(=O)[O-])c(F)c1F.[Na+] [probe 1, reference compound]
PFKP
  labeling of WT vs mutant protein by probe: HD (the WT labeled more than the mutant (>4x difference quantified))
PMVK
  labeling of WT vs mutant protein by probe: HD (the WT labeled more than the mutant (>4x difference quantified))

## C#Cc1ccc(C(=O)Oc2c(F)c(F)cc(F)c2F)cc1 [probe 12, 2,3,5,6-Tetrafluorophenyl 4-ethynylbenzoate]
PFKP
  labeling of WT vs mutant protein by probe: HD (the WT labeled more than the mutant (>4x difference quantified))
PMVK
  labeling of WT vs mutant protein by probe: ND (the WT did not label more than the mutant (<2x difference quantified))

## C#Cc1ccc(C(=O)Oc2ccccc2[N+](=O)[O-])cc1 [probe 10, 2-Nitrophenyl 4-ethynylbenzoate]
PFKP
  labeling of WT vs mutant protein by probe: HD (the WT labeled more than the mutant (>4x difference quantified))
PMVK
  labeling of WT vs mutant protein by probe: ND (the WT did not label more than the mutant (<2x difference quantified))

## Cc1cc(C)n2c1C=C1C=CC(CCC(=O)Oc3c(F)c(F)c(S(=O)(=O)[O-])c(F)c3F)=[N+]1[B-]2(F)F.[Na+] [probe 18, reference compound]
PFKP
  labeling of WT vs mutant protein by probe: PD (the WT labeled more than the mutant (>2x difference quantified))
PMVK
  labeling of WT vs mutant protein by probe: HD (the WT labeled more than the mutant (>4x difference quantified))

## C#CCCC(=O)Oc1c(F)c(F)c(F)c(F)c1F [probe 6, Pentafluorophenyl 4-pentynoate]
PFKP
  labeling of WT vs mutant protein by probe: HD (the WT labeled more than the mutant (>4x difference quantified))
PMVK
  labeling of WT vs mutant protein by probe: ND (the WT did not label more than the mutant (<2x difference quantified))

## C#Cc1ccc(C(=O)Oc2c(F)c(F)c(F)c(F)c2F)cc1 [probe 13, Pentafluorophenyl 4-ethynylbenzoate]
PFKP
  labeling of WT vs mutant protein by probe: HD (the WT labeled more than the mutant (>4x difference quantified))
PMVK
  labeling of WT vs mutant protein by probe: ND (the WT did not label more than the mutant (<2x difference quantified))
